Measured values taken from patent publication US20160159814A1, “GLYCINE TRANSPORTER INHIBITOR” (TAISHO PHARMACEUTICAL CO., LTD., priority 2013, published 2016).

Target: T1, human type 1 glycine transporter (GlyT1) (Homo sapiens, UniProt P48067)
T1 construct: T98G cells (glioma cells) expressing human type 1 glycine transporter (GlyT1) were used; endogenous in cells; host or cells: T98G cells (human glioma cells)
T1 sequence (P48067 1-706): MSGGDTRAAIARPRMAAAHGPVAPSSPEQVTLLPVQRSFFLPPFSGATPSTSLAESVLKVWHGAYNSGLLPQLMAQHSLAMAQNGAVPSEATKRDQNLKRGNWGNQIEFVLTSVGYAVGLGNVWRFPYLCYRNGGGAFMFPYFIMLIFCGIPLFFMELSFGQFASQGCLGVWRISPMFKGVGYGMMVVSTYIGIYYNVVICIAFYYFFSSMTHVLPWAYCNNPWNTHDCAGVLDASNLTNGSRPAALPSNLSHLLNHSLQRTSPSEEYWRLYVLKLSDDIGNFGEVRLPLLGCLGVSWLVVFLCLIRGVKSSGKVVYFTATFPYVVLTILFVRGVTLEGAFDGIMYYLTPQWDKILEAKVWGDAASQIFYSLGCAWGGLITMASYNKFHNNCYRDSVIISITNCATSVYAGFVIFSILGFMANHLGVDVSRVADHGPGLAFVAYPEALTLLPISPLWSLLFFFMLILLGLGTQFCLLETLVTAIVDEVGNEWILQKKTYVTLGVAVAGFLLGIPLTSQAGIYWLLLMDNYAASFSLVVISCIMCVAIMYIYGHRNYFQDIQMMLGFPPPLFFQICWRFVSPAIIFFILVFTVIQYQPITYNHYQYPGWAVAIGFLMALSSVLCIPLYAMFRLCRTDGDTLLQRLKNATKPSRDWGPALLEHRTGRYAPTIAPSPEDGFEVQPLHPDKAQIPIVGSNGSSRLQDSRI
Assay: Glycine uptake inhibition experiment ([3H] glycine uptake in T98G cells expressing GlyT1)
Format: cell-based
Details: not given
Summary of the method: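 T98G glioma cells expressing human GlyT1 were pretreated 10 min with compound in HEPES buffer pH 7.4 (0.2% BSA), then incubated with compound plus 250 nM final [3H]glycine for 15 min at room temperature. Intracellular radioactivity was counted after NaOH lysis; 10 μM ALX5407 defined non-specific uptake. IC50 came from 10^−9–10^−5 M curves.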

Question: How did the IC50 turn out when `C[C@H](O)c1cccc2c1C(F)(F)C(=O)N2Cc1ccnc(C#N)c1F` [Compound 173, 4-({3,3-difluoro-4-[(1S)-1-hydroxyethyl]-2-oxo-2,3-dihydro-1H-indol-1-yl}methyl)-3-fluoropyridine-2-carbonitrile] was run?
Answer: 19 nM

Question: `C[C@H](O)c1cccc2c1C(F)(F)C(=O)N2Cc1cnc(Cl)nc1` [Compound 214, 1-[(2-chloropyrimidin-5-yl)methyl]-3,3-difluoro-4-[(1S)-1-hydroxyethyl]-1,3-dihydro-2H-indol-2-one] was tested. Which IC50 did it give?
Answer: 140 nM

Question: How did the IC50 turn out when `O=C1N(Cc2ccc(F)cn2)c2cccc(C(O)C(F)F)c2C1(F)F` (single isomer, unassigned) [Compound 168, 4-(2,2-difluoro-1-hydroxyethyl)-3,3-difluoro-1-[(5-fluoropyridin-2-yl)methyl]-1,3-dihydro-2H-indol-2-one] was run?
Answer: 280 nM

Question: For `C[C@H](O)c1cccc2c1C(F)(F)C(=O)N2Cc1cnc(F)c(C#N)c1` [Compound 235, 5-({3,3-difluoro-4-[(1S)-1-hydroxyethyl]-2-oxo-2,3-dihydro-1H-indol-1-yl}methyl)-2-fluoropyridine-3-carbonitrile], which IC50 is on record?
Answer: 23 nM

Question: Which IC50 does the source give for `O=C1N(Cc2ccnc(C3CC3)c2)c2cccc(C(O)C(F)F)c2C1(F)F` (single isomer, unassigned) [Compound 180, 1-[(2-cyclopropylpyridin-4-yl)methyl]-4-(2,2-difluoro-1-hydroxyethyl)-3,3-difluoro-1,3-dihydro-2H-indol-2-one] here?
Answer: 53 nM

Same assay, conditions: glycine uptake inhibition

Question: With `C[C@H](O)c1cccc2c1C(F)(F)C(=O)N2Cc1nc2ccccc2s1` [Compound 73, 1-(1,3-benzothiazol-2-ylmethyl)-3,3-difluoro-4-[(1S)-1-hydroxyethyl]-1,3-dihydro-2H-indol-2-one] as the compound, how does the IC50 read?
Answer: 37 nM

Question: `C[C@H](O)c1cccc2c1C(F)(F)C(=O)N2Cc1cc(C(F)(F)F)ccn1` [Compound 96, 3,3-difluoro-4-[(1S)-1-hydroxyethyl]-1-{[4-(trifluoromethyl)pyridin-2-yl]methyl}-1,3-dihydro-2H-indol-2-one] was tested. Which IC50 did it give?
Answer: 51 nM

Question: How did the IC50 turn out when `C[C@H](O)c1cccc2c1C(F)(F)C(=O)N2Cc1ccc2nonc2c1` [Compound 76, 1-(2,1,3-benzoxadiazol-5-ylmethyl)-3,3-difluoro-4-[(1S)-1-hydroxyethyl]-1,3-dihydro-2H-indol-2-one] was run?
Answer: 8.7 nM

Question: How did the IC50 turn out when `C[C@H](O)c1cccc2c1C(F)(F)C(=O)N2Cc1cccc(Cl)c1` [Compound 55, 1-(3-chlorobenzyl)-3,3-difluoro-4-[(1S)-1-hydroxyethyl]-1,3-dihydro-2H-indol-2-one] was run?
Answer: 2.2 nM

Question: How did the IC50 turn out when `CC(O)c1cccc2c1C(F)(F)C(=O)N2Cc1cccc(Cl)n1` (single isomer, unassigned) [Compound 5, 1-[(6-chloropyridin-2-yl)methyl]-3,3-difluoro-4-(1-hydroxyethyl)-1,3-dihydro-2H-indol-2-one] was run?
Answer: 300 nM

Question: For `C[C@H](O)c1cccc2c1C(F)(F)C(=O)N2Cc1ccc(Cl)cn1` [Compound 103, 1-[(5-chloropyridin-2-yl)methyl]-3,3-difluoro-4-[(1S)-1-hydroxyethyl]-1,3-dihydro-2H-indol-2-one], which IC50 is on record?
Answer: 44 nM

Question: For `N#Cc1cc(CN2C(=O)C(F)(F)c3c(C(O)C(F)(F)F)cccc32)ccn1` (single isomer, unassigned) [Compound 20, 4-{[3,3-difluoro-2-oxo-4-(2,2,2-trifluoro-1-hydroxyethyl)-2,3-dihydro-1H-indol-1-yl]methyl}pyridine-2-carbonitrile], which IC50 is on record?
Answer: 2900 nM

Question: With `C[C@H](O)c1cccc2c1C(F)(F)C(=O)N2Cc1cncc(F)c1` [Compound 63, 3,3-difluoro-1-[(5-fluoropyridin-3-yl)methyl]-4-[(1S)-1-hydroxyethyl]-1,3-dihydro-2H-indol-2-one] as the compound, how does the IC50 read?
Answer: 76 nM

Question: `C[C@H](O)c1cccc2c1C(F)(F)C(=O)N2Cc1ccccn1` [Compound 60, 3,3-difluoro-4-[(1S)-1-hydroxyethyl]-1-(pyridin-2-ylmethyl)-1,3-dihydro-2H-indol-2-one] was tested. Which IC50 did it give?
Answer: 230 nM

Question: How did the IC50 turn out when `CC(O)c1cccc2c1C(F)(F)C(=O)N2Cc1ccnc(Cl)c1` (centres unmarked) [Compound 27, 1-[(2-chloropyridin-4-yl)methyl]-3,3-difluoro-4-(1-hydroxyethyl)-1,3-dihydro-2H-indol-2-one] was run?
Answer: 23 nM

Question: Which IC50 does the source give for `Cc1nc(CN2C(=O)C(F)(F)c3c([C@H](C)O)cccc32)oc1C` [Compound 91, 1-[(4,5-dimethyl-1,3-oxazol-2-yl)methyl]-3,3-difluoro-4-[(1S)-1-hydroxyethyl]-1,3-dihydro-2H-indol-2-one] here?
Answer: 130 nM

Question: Which IC50 does the source give for `O=C1N(Cc2cc(Cl)ccn2)c2cccc(C(O)C(F)F)c2C1(F)F` (single isomer, unassigned) [Compound 146, 1-[(4-chloropyridin-2-yl)methyl]-4-(2,2-difluoro-1-hydroxyethyl)-3,3-difluoro-1,3-dihydro-2H-indol-2-one] here?
Answer: 61 nM

Question: With `O=C1N(Cc2cncc(Cl)c2)c2cccc(C(O)C(F)F)c2C1(F)F` (single isomer, unassigned) [Compound 120, 1-[(5-chloropyridin-3-yl)methyl]-4-(2,2-difluoro-1-hydroxyethyl)-3,3-difluoro-1,3-dihydro-2H-indol-2-one] as the compound, how does the IC50 read?
Answer: 57 nM

Question: For `COc1ccc(CN2C(=O)C(F)(F)c3c([C@H](C)O)cccc32)nc1` [Compound 106, 3,3-difluoro-4-[(1S)-1-hydroxyethyl]-1-[(5-methoxypydin-2-yl)methyl]-1,3-dihydro-2H-indol-2-one], which IC50 is on record?
Answer: 810 nM

Question: For `CC(O)c1cccc2c1C(F)(F)C(=O)N2Cc1nc2ccccc2c(=O)n1C` (centres unmarked) [Compound 30, 2-{[3,3-difluoro-4-(1-hydroxyethyl)-2-oxo-2,3-dihydro-1H-indol-1-yl]methyl)-3-methylquinazolin-4(3H)-one], which IC50 is on record?
Answer: 54 nM

Question: How did the IC50 turn out when `O=C1N(Cc2ccnc(-n3nccn3)c2)c2cccc(C(O)C(F)F)c2C1(F)F` (single isomer, unassigned) [Compound 147, 4-(2,2-difluoro-1-hydroxyethyl)-3,3-difluoro-1-{[2-(2H-1,2,3-triazol-2-yl)pyridin-4-yl]methyl}-1,3-dihydro-2H-indol-2-one] was run?
Answer: 360 nM

Question: `Cc1nc2ccccc2nc1CN1C(=O)C(F)(F)c2c([C@H](C)O)cccc21` [Compound 79, 3,3-difluoro-4-[(1S)-1-hydroxyethyl]-1-[(3-methylquinoxalin-2-yl)methyl]-1,3-dihydro-2H-indol-2-one] was tested. Which IC50 did it give?
Answer: 31 nM

Question: With `Cn1c(CN2C(=O)C(F)(F)c3c([C@@H](O)C(F)(F)F)cccc32)cc2ccccc2c1=O` [Compound 142, 3-({3,3-difluoro-2-oxo-4-[(1R)-2,2,2-trifluoro-1-hydroxyethyl]-2,3-dihydro-1H-indol-1-yl}methyl)-2-methylisoquinan-1(2H)-one] as the compound, how does the IC50 read?
Answer: 130 nM

Question: How did the IC50 turn out when `O=C1N(Cc2cncc(Cl)c2)c2cccc(C(O)C(F)(F)F)c2C1(F)F` (centres unmarked) [Compound 17, 1-[(5-chloropyridin-3-yl)methyl]-3,3-difluoro-4-(2,2,2-trifluoro-1-hydroxyethyl)-1,3-dihydro-2H-indol-2-one] was run?
Answer: 72 nM

Question: For `CC(O)c1cccc2c1C(F)(F)C(=O)N2Cc1cncc(Cl)c1` (single isomer, unassigned) [Compound 6, 1-[(5-chloropyridin-3-yl)methyl]-3,3-difluoro-4-(1-hydroxyethyl)-1,3-dihydro-2H-indol-2-one], which IC50 is on record?
Answer: 3700 nM

Same assay, conditions: table section whose head prints (μm)

Question: How did the IC50 turn out when `N#Cc1nccc(CN2C(=O)C(F)(F)c3c(C(O)C(F)F)cccc32)c1Cl` (single isomer, unassigned) [Compound 267] was run?
Answer: 260 nM
